The subject of the data set is B16/F1 murine melanoma. The class given is in vivo, C57BL mice. As for the experimental part:
To the nape of the neck of 12 female C57BL mice, each weighing 18˜23 g, B16/F1 murine melanoma cells were injected at a density of 10^6 cells/mL. Two weeks later, the tumor was developed to a size of 0.5˜1 g. The ^177Lu-DOTA-Gly-Cyclic(Dap-Gln-His-dPhe-Arg-Trp-Asp)-Lys-Pro-Val-CONH2 prepared in Example 13 was injected to the mice at a dose of 5 μCi (1.6 μg in 100 μl of saline). 2, 4 and 24 hours later, the mice were sacrificed before organ excision.
For comparison for target selectivity, the mice that were injected with 2 μg of an unlabeled peptide 2 hours after the first injection and then with the radiolabeled peptide were used as a control.
The excised organs were analyzed for radioactivity using a gamma counter (1470 WIZARD Automatic Gamma Counter, PerkinElmer) and the results are plotted in FIG. 7.

The values that follow come from US8124054B2, “Chelating agent conjugated α-MSH peptide derivatives, preparation method thereof and composition for diagnosis and treatment of melanoma comprising the same as an active ingredient” (Korea Atomic Energy Research Institute, priority 2008, dated 2012).

Take “^177Lu-labeled DOTA-Gly-cyclic(Dap-Glu-His-dPhe-Arg-Trp-Asp)-Lys-Pro-Val-CONH2 [Example 13]”: the receptor selectivity entry (concluded from tumor uptake with and without unlabeled peptide) is reported as “high receptor selectivity”. Besides, the “tumor uptake in control injected with 2 μg of unlabeled peptide, compared with experimental groups” value (mouse, in vivo) was “lower tumor uptake”.
